Source: patent US10577634B2, “Bioconversion process for producing nylon-7, nylon-7,7 and polyesters” (INVISTA North America S.A.R.L., priority 2011, dated 2020)

How the values were obtained:
[1] = target: T1, ACOT3 (formerly PTE-1a) (Mus musculus, UniProt Q9QYR7); conditions: free CoASH; cited from earlier work
T1 construct: His-tag; host or cells: E. coli
T1 sequence (Q9QYR7 1-432): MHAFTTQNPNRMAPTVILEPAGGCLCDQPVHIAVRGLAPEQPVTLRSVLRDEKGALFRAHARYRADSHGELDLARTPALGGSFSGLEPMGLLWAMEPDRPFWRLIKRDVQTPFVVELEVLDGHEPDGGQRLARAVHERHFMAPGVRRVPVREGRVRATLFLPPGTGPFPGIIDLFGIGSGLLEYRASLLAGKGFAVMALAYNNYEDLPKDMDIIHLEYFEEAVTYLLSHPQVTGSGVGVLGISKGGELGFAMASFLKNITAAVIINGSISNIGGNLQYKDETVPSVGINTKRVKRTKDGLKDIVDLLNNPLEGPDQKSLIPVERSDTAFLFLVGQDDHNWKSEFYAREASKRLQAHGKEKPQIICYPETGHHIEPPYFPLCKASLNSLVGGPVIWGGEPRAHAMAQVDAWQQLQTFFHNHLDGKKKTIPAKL

[2] = target: T2, ACOT4 peroxisomal acyl-CoA thioesterase 4 (Mus musculus, UniProt Q8BWN8); conditions: CoASH at concentrations up to 500 μM; cited from earlier work
T2 construct: His-tag; host or cells: E. coli
T2 sequence (Q8BWN8 1-421): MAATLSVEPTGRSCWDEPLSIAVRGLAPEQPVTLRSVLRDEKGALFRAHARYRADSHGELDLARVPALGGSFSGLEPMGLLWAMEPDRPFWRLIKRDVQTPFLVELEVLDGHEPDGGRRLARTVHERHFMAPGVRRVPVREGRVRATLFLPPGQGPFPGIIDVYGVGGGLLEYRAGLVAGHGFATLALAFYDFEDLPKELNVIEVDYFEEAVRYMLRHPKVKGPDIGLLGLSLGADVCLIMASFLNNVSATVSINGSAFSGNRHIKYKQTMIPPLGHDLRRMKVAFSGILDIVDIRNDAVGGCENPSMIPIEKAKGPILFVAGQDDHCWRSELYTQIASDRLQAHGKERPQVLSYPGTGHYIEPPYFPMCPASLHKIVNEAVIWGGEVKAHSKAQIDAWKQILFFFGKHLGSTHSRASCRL

[3] = target: T3, ACOT5 (formerly PTE-1c) (Mus musculus, UniProt Q6Q2Z6); conditions: free CoASH; cited from earlier work
T3 construct: His-tag; host or cells: E. coli
T3 sequence (Q6Q2Z6 1-421): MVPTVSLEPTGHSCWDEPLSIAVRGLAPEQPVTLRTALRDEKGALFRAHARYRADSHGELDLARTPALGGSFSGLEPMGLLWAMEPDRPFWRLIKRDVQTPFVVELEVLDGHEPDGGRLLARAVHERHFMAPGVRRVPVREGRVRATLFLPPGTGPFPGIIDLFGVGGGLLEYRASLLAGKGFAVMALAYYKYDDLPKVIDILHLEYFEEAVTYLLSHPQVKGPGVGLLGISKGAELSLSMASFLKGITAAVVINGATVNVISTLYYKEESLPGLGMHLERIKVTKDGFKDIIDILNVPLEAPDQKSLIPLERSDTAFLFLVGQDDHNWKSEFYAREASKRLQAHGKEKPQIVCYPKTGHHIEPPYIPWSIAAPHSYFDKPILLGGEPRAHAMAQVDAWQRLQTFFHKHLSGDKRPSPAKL

[4] = target: T4, ACOT8 peroxisomal acyl-CoA thioesterase 8 (Mus musculus, UniProt P58137); conditions: inhibition of ACOT8; cited from earlier work
T4 construct: His-Tag; host or cells: E. coli
T4 sequence (P58137 1-320): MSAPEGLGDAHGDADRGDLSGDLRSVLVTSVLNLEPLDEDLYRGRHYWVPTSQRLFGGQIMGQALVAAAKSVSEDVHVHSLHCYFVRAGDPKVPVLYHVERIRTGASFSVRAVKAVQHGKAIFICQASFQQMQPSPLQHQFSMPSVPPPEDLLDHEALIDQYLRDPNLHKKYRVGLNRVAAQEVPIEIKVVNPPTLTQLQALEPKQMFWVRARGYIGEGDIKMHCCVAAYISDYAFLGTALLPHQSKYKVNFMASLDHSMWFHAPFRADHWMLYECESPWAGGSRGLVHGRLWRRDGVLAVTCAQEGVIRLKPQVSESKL

[5] = target: T5, AAR acyl-ACP reductase (YP_400611) (Synechococcus elongatus, UniProt Q54765); conditions: substrate of AAR, octadecanal formed, NADPH-dependent; cited from earlier work
T5 construct: host or cells: E. coli MG1655
T5 sequence (Q54765 1-341): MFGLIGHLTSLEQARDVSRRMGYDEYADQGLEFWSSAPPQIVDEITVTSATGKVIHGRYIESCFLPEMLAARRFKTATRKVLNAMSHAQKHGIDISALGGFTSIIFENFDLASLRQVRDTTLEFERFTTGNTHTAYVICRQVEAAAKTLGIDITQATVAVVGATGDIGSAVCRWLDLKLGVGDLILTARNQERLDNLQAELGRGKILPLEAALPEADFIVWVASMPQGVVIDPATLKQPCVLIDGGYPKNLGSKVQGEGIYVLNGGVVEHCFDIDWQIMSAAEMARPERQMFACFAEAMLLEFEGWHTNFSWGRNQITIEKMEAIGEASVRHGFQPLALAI

[6] = target: T6, Amino adipate aminotransferase (Q64602) (Bos taurus, UniProt Q5E9N4); conditions: in the presence of pimelic acid; cited from earlier work
T6 construct: Purification and properties of 2-aminoadipate: 2-oxoglutarate aminotransferase from bovine kidney; host or cells: bovine kidney
T6 sequence (Q5E9N4 30-425, one chain of several): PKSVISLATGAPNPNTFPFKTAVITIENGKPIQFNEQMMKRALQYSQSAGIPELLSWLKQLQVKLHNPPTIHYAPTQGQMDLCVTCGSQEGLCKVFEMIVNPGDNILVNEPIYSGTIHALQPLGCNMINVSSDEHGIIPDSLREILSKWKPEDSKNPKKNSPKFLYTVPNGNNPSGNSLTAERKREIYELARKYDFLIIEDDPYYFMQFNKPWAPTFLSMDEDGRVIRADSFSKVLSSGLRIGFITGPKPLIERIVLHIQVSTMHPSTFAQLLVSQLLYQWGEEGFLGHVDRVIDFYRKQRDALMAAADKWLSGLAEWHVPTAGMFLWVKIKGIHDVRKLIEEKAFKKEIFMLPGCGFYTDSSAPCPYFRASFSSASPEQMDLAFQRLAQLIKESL

[7] = tested on: PauA catabolic pimeloyl-CoA ligase; conditions: substrate accepted by PauA, pimelate = 100%; cited from earlier work
[8] = target: T7, Nocardia sp. carboxylic acid reductase (CAR) (Nocardia iowensis, UniProt Q6RKB1); assay: Spectrophotometric carboxylic acid reductase (CAR) activity assay, change in absorbance at 340 nm; format: biochemical; conditions: for Adjusted for background: gradient of change in absorbance at 340 nm adjusted for background; for gradient of trend line: rate of change in absorbance at 340 nm, CAR cell free extract, substrate added after 2 minutes; for Relative rate % compared to benzoate: relative rate of change in absorbance at 340 nm
T7 construct: made in house; host or cells: E. coli BL-21 (DE3) RP1pPV2-85; cell free extract
T7 sequence (Q6RKB1 1-1174): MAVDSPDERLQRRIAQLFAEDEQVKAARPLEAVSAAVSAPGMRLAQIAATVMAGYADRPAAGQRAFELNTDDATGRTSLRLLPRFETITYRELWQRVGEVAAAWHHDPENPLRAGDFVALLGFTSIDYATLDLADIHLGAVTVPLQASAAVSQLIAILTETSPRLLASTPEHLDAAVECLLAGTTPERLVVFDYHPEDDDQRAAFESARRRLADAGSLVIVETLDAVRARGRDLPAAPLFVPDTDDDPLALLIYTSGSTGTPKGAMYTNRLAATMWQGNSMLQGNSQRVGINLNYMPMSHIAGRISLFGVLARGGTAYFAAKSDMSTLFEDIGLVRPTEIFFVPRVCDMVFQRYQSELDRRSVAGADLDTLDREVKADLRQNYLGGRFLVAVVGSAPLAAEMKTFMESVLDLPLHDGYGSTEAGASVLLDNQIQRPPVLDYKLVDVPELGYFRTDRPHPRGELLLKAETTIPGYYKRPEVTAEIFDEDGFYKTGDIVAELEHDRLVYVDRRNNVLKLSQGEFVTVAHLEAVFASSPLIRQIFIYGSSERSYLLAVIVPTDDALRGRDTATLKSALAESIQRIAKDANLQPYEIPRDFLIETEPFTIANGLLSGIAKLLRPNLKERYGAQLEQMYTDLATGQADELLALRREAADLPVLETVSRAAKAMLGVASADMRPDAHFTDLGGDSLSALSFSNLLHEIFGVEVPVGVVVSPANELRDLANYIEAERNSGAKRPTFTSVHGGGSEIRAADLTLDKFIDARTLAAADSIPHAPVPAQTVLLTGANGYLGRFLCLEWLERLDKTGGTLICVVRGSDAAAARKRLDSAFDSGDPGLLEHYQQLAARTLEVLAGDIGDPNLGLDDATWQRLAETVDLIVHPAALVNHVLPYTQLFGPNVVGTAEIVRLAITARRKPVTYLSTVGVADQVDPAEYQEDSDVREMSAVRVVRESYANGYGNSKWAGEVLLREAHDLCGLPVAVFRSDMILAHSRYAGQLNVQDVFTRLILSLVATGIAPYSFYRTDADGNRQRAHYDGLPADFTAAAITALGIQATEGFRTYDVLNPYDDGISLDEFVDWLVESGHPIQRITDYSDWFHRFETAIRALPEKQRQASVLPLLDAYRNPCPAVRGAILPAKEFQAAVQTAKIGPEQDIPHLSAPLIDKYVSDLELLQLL
Experimental: The conditions for the assay were taken from Applied and Environmental Microbiology 2004, 70, p 1874-1881.
In a quartz cuvette the following reagents were added: 100 μL MgCl2, 100 μL, ATP, 100 μL NADPH, 200 μL Tris.HCl buffer. The absorbance at 340 nm was measured and recorded and 100 μL of CAR cell free extract was added. The absorbance was monitored and recorded. […] The absorbance monitored over time was subtracted from the initial measurement.

Row | Molecule | Km [5] [µM] | Adjusted for background [8] | gradient of trend line [8] | Relative rate % compared to benzoate [8] [%] | also measured
1 | CC(C)(COP(=O)(O)OP(=O)(O)OC[C@H]1O[C@@H](n2cnc3c(N)ncnc32)[C@H](O)[C@@H]1OP(=O)(O)O)[C@@H](O)C(=O)NCCC(=O)NCCS [CoASH] | – | – | – | – | inhibition [1]: no inhibition; inhibition of the reaction [2]: not inhibited; inhibition [3]: no inhibition; IC50 [4]: 10 to 15 µM
2 | CCCCCCCC/C=C\CCCCCCCC(=O)SCCNC(=O)CCNC(=O)[C@H](O)C(C)(C)COP(=O)(O)OP(=O)(O)OC[C@H]1O[C@@H](n2cnc3c(N)ncnc32)[C@H](O)[C@@H]1OP(=O)(O)O [oleoyl-CoA] | 130 | – | – | – | –
3 | O=C(O)CCCCCC(=O)O [pimelic acid] | – | – | – | – | reduction in activity [6]: 30%; relative activity [7]: 100%; activity relative to the activity for benzoic acid ([8]; reduction to pimelic acid semialdehyde by CAR from Nocardia): > 50%
4 | O=C([O-])c1ccccc1.[Na+] [sodium benzoate] | – | 0.00133 | 0.0141 | 100 | –
5 | O=C([O-])CCCCCC(=O)[O-].[Na+].[Na+] [sodium pimelate] | – | 0.0068 | 0.0076 | 51.1 | –
6 | oleoyl-ACP | 8 | – | – | – | –
